According to patent US20020006406A1, “METHOD FOR THE TREATMENT OF STAPHYLOCOCCAL DISEASE” (priority 1997, published 2002):
Marks after values point to notes of the source that are not given here.

How the values were obtained:
[1] = tested on: Staphylococcus epidermidis; assay: MIC against Staphylococcus epidermidis clinical isolates; assay type: cell-based; details: 11 of 13 clinical isolates of S. epidermidis tested
Description: (§1) Approved Standard M7-A3. Methods for dilution antimicrobial susceptibility tests for bacteria that grow aerobically—Third edition. National Committee for Clinical Laboratory Standards, Villanova, Pa.; National Committee for Clinical Laboratory Standards, 1992. Tentative Guideline M26-T. Methods for determining bactericidal activity of antimicrobial agents. National Committee for Clinical Laboratory Standards, Villanova, Pa.].

S. aureus [2] = assay: MIC by broth microdilution with 0.1% BSA in the diluent; assay type: cell-based
Experimental: Lysostaphin sticks to plastic materials and can be lost from solution; this can affect its apparent activity. Therefore, some MIC determinations were also performed with additions of 0.1% bovine serum album (BSA) to the diluent. Otherwise, the method was identical to that cited above. […] Since this observation is related to the affinity of lysostaphin for plastic materials, it is to be expected that, in general, staphylococcal strains are more susceptible to lysostaphin than was observed previously.

[3] = tested on: methicillin-resistant clinical isolates of S. aureus and 27619VR; assay: Time-kill experiment, four S. aureus strains (FIG. 2); assay type: cell-based; details: 1 μg/ml; three methicillin-resistant clinical isolates and 27619VR; 2×10^6 to 9×10^7 CFU/ml
Experimental: In another experiment (FIG. 2), three different methicillin-resistant clinical isolates of S. aureus, and a fourth strain, 27619VR, a laboratory-derived ‘VISA’ strain (i.e., with intermediate resistance to vancomycin) derived from a methicillin-resistant clinical isolate, were inoculated into cation-adjusted Mueller-Hinton broth (Becton Dickinson) and grown at 37° C. overnight. They were then diluted into fresh broth and incubated at 37° C. with gentle shaking until they were estimated to have reached the logarithmic stage of growth. […] Lysostaphin was added to each culture at the concentration of 1 μg/ml. At intervals, samples were withdrawn, serially diluted in 0.9% NaCl, and plated by spreading on Mueller-Hinton agar (Becton Dickinson). The agar plates were incubated for 48 hours at 37° C. and the colonies were counted manually.

S. aureus [4] = assay: MIC by standard broth microdilution; assay type: cell-based
Description: as §1

S. aureus strain AG461 = details: strain AG461 (methicillin-resistant clinical isolate)
Description: The different concentrations of lysostaphin and vancomycin used were one and eight times their respective MIC.

MRSA 27619 = assay: Experimental aortic valve endocarditis in rabbits, MRSA 27619; assay type: in vivo, S. aureus; details: for Mean log10CFU/gram of vegetation / Number of sterile vegetations/total animals treated: three days
Experimental: Aortic valve endocarditis was established in New Zealand white rabbits weighing approximately 3 kg. Rabbits were anesthetized and the right carotid artery surgically exposed and cannulated with a polyethylene catheter which was advanced into the left ventricle of the heart. After at least 24 h, the rabbits were infected intravenously with 10^6-10^7 cells of a methicillin-resistant S. aureus strain (MRSA 27619). Twenty-four hours later, the animals were randomly assigned to different treatment groups; untreated control (9 rabbits); positive control, vancomycin 30 mg/kg twice daily (15); lysostaphin 5 mg/kg three times daily (11); lysostaphin 5 mg/kg once daily (10); lysostaphin 5 mg/kg once daily+vancomycin 30 mg/kg twice daily (11).
All treatments were intravenous and were carried out for three days. The state of health of the rabbits was assessed at intervals. The rabbits were sacrificed 18 h after the last treatment. Aortic vegetations were removed and weighed and processed to determine the number of viable bacteria, expressed as log,10CFU/gram. The limit of detection is 10^2 CFU/gram (log10CFU/gram=2.0). The mean titers of bacteria per gram were compared by one-way analysis of variance. The Student-Newman-Keuls test was used to adjust for multiple comparisons.
Comparison of the rates of sterilization were made using Fisher's exact test. Statistical significance was defined as a P value of ≦0.05.
Kidney abscesses were also assessed for the presence of staphylococci.

[5] = at least 50 mg/kg/treatment; cited from earlier work
S. aureus [6] = assay: MBC by standard broth microdilution (kills 99.9% of inoculum in 24 h); assay type: cell-based
Description: as §1

S. aureus [7] = assay: MIC by broth macrodilution in glass tubes; assay type: cell-based
Experimental: In this experiment, MICs were determined by broth macrodilution in 1 ml final volumes in glass tubes. Otherwise, the methodology was as described above.

[8] = strain 404 (clinical isolate, methicillin-resistant)
[9] = strain 27287 (clinical isolate, methicillin-resistant)
[10] = strain 27295 (clinical isolate, methicillin-resistant)
[11] = strain 27619 (clinical isolate, methicillin-resistant)
[12] = clinical isolates of S. aureus (summary of Table 1a)
[13] = strain 450M (clinical isolate, methicillin-resistant)
[14] = strain 1573 (clinical isolate, methicillin-resistant)
[15] = strain 27222 (clinical isolate, methicillin-resistant)
[16] = strain 27286 (clinical isolate, methicillin-resistant)
[17] = strain 27619VR (laboratory-derived, intermediate susceptibility to vancomycin)
[18] = strain 27621 (clinical isolate, methicillin-resistant)
[19] = strain 27622 (clinical isolate, methicillin-resistant)
[20] = strain 27698 (clinical isolate, methicillin-resistant)
[21] = strain 29293 (clinical isolate, methicillin-resistant)
[22] = strain COL (clinical isolate, methicillin-resistant)
[23] = strain HP5827 (clinical isolate, methicillin-resistant, VISA)
[24] = strain HP5836 (clinical isolate, methicillin-resistant, VISA)

lysostaphin: recombinant lysostaphin enzyme from fermentation of B. sphaericus; majority component lacks the two N-terminal amino acids of the published sequence
MIC [1]: ≤ 8 µg/mL | MIC With BSA (S. aureus [2]; strain 401 (clinical isolate)): 0.015 µg/mL | MIC With BSA (S. aureus [2]; [8]): 0.008 µg/mL | MIC With BSA (S. aureus [2]; strain 414): 0.03 µg/mL | MIC With BSA (S. aureus [2]; strain 417): 0.03 µg/mL | MIC With BSA (S. aureus [2]; strain 25756 (clinical isolate, methicillin-resistant)): 0.008 µg/mL | MIC With BSA (S. aureus [2]; [9]): 0.03 µg/mL | MIC With BSA (S. aureus [2]; [10]): ≦0.004 μg/ml | MIC With BSA (S. aureus [2]; [11]): 0.008 µg/mL | killing of strains in time-kill experiment [3]: rapidly killed | minimal inhibitory concentrations (MIC) (S. aureus [4]; [12]): ≤ 1.0 µg/mL | MIC Without BSA (S. aureus [4]; strain 401 (clinical isolate)): 0.5 µg/mL | MIC (S. aureus [4]; strain 402 (clinical isolate)): 0.5 µg/mL | MIC (S. aureus [4]; [8]): 0.5 µg/mL | MIC Without BSA (S. aureus [4]; [8]): 0.5 µg/mL | MIC (S. aureus [4]; strain 412): 0.25 µg/mL | MIC (S. aureus [4]; strain 414): 0.25 µg/mL | MIC Without BSA (S. aureus [4]; strain 414): 0.25 µg/mL | MIC (S. aureus [4]; [13]): 0.25 µg/mL | MIC (S. aureus [4]; [14]): 0.5 µg/mL | MIC (S. aureus [4]; [15]): 0.25 µg/mL | MIC (S. aureus [4]; [16]): 0.25 µg/mL | MIC (S. aureus [4]; [9]): 0.25 µg/mL | MIC Without BSA (S. aureus [4]; [9]): 0.25 µg/mL | MIC (S. aureus [4]; [10]): 0.13 µg/mL | MIC Without BSA (S. aureus [4]; [10]): 0.13 µg/mL | MIC (S. aureus [4]; [11]): 0.25 µg/mL | MIC Without BSA (S. aureus [4]; [11]): 0.25 µg/mL | MIC (S. aureus [4]; [17]): 0.5 µg/mL | MIC (S. aureus [4]; [18]): 0.06 µg/mL | MIC (S. aureus [4]; [19]): 0.06 µg/mL | MIC (S. aureus [4]; [20]): 0.25 µg/mL | MIC (S. aureus [4]; [21]): 0.06 µg/mL | MIC (S. aureus [4]; [22]): 0.13 µg/mL | MIC (S. aureus [4]; [23]): 0.5 µg/mL | MIC (S. aureus [4]; [24]): 0.5 µg/mL | MIC (lower time-kill concentration stated to be one times MIC) (S. aureus strain AG461): 0.004 µg/mL | Mean log10CFU/gram of vegetation (MRSA 27619; 5 mg/kg once daily iv): 7.08 log10CFU/gram | Number of sterile vegetations/total animals treated (MRSA 27619; 5 mg/kg once daily iv): 2/10 | Mean log10CFU/gram of vegetation (MRSA 27619; 5 mg/kg three times daily iv): 2.26 log10CFU/gram | Number of sterile vegetations/total animals treated (MRSA 27619; 5 mg/kg three times daily iv): 10/11^c | bacterial load in kidney abscesses (MRSA 27619; thrice-daily regimen (5 mg/kg), controls just under 10^8 CFU/gram): ~10^2 CFU/gram of tissue | state of health of the rabbits (MRSA 27619; thrice-daily regimen, early in the treatment cycle): all in good health | effectiveness (health of the dogs, reduction of bacteria in heart valves and kidneys) [5]: only moderately effective | minimal bactericidal concentrations (MBC) (S. aureus [6]; [12]): ≤ 1.0 µg/mL | MBC (S. aureus [6]; strain 402 (clinical isolate)): 0.5 µg/mL | MBC (S. aureus [6]; [8]): 0.5 µg/mL | MBC (S. aureus [6]; strain 412): 0.25 µg/mL | MBC (S. aureus [6]; strain 414): 0.25 µg/mL | MBC (S. aureus [6]; [13]): 0.5 µg/mL | MBC (S. aureus [6]; [14]): 1 µg/mL | MBC (S. aureus [6]; [15]): 0.25 µg/mL | MBC (S. aureus [6]; [16]): 0.5 µg/mL | MBC (S. aureus [6]; [9]): 0.25 µg/mL | MBC (S. aureus [6]; [10]): 0.25 µg/mL | MBC (S. aureus [6]; [11]): 0.5 µg/mL | MBC (S. aureus [6]; [17]): 0.5 µg/mL | MBC (S. aureus [6]; [18]): 0.25 µg/mL | MBC (S. aureus [6]; [19]): 0.25 µg/mL | MBC (S. aureus [6]; [20]): 0.5 µg/mL | MBC (S. aureus [6]; [21]): 0.25 µg/mL | MBC (S. aureus [6]; [22]): 0.25 µg/mL | MBC (S. aureus [6]; [23]): 0.5 µg/mL | MBC (S. aureus [6]; [24]): 1 µg/mL | MIC (S. aureus [7]; strain AG402 (clinical isolate)): .008 µg/mL | MIC (S. aureus [7]; strain AG404 (clinical isolate, methicillin-resistant)): .008 µg/mL | MIC (S. aureus [7]; strain AG414): .004 µg/mL | MIC (S. aureus [7]; strain AG417): .004 µg/mL
